Active and inactive are the calls of the source. The rule behind the calls is not given here. Positions of bridges follow the written chain, without caps; N, C: chain ends. Residues, ends and D or L forms follow the SMILES beside them.
What was measured:
[1] = tested on: SARS-CoV-2; assay: Antiviral activity against SARS-CoV-2; format: functional, organism-based; settings: Severe acute respiratory syndrome coronavirus 2
[2] = target: T1, Replicase polyprotein 1ab (Severe acute respiratory syndrome coronavirus 2, UniProt P0DTD1); assay: Inhibition of N-terminal his-tagged SARS-CoV-2 Main protease expressed in Escherichia coli BL21 (DE3) using Dabcyl-TSAVLWSGFRICMK-Edans as substrate preincubated for 10 mins by microplate reader analysis
[3] = target: T1, Replicase polyprotein 1ab; assay: Binding affinity to N-terminal his-tagged SARS-CoV-2 Main protease expressed in Escherichia coli BL21 (DE3) assessed as dissociation constant by ITC analysis
[4] = tested on: SARS-CoV-2; assay: Antiviral activity against SARS-CoV-2 infected in human Caco-2 cells assessed as inhibition of viral infection preincubated for 1 hr followed by viral infection measured after 48 hrs by CQ1 confocal quantitative image cytometer analysis; format: functional, organism-based; settings: for EC50: Severe acute respiratory syndrome coronavirus 2, Caco-2; for Activity: Severe acute respiratory syndrome coronavirus 2, time 49.0 hrs
[5] = (§1) Cytotoxicity against human Caco-2 cells assessed as cell viability at 100 uM incubated for 48 hrs by CCK-8 assay; format: toxicity, cell-based; settings: Caco-2 cells
[6] = Metabolic stability in mouse serum assessed as half life by HPLC analysis; format: ADME, cell-free
[7] = tested on: SARS-CoV-2; assay: Antiviral activity against SARS-CoV-2 Omicron; format: functional, organism-based; settings: Severe acute respiratory syndrome coronavirus 2, Omicron
[8] = tested on: Caco-2; assay: as §1; format: toxicity, cell-based; settings: caco-2, 48 h, 100 µM
[9] = target: Cathepsin B (Homo sapiens) (UniProt P07858); assay: Inhibition of cathepsin B (unknown origin)
[10] = target: Ubiquitin carboxyl-terminal hydrolase 14 (Homo sapiens) (UniProt P54578); assay: Inhibition of USP14 (unknown origin)
[11] = Drug uptake in human Caco-2 cells at 5 uM measured after 3 hrs by live confocal microscopic analysis; format: ADME, cell-based; settings: caco-2, 3 h
[12] = Drug uptake in human HeLa cells at 5 uM measured after 3 hrs by live confocal microscopic analysis; format: ADME, cell-based
[13] = Half life in male CD-1 mouse at 4 mg/kg, iv by LC-MS/MS analysis; format: ADME, organism-based; settings: in vivo
[14] = Initial plasma concentration in male CD-1 mouse at 4 mg/kg, iv by LC-MS/MS analysis; format: ADME, organism-based
[15] = AUC (0 to infinity) in male CD-1 mouse at 4 mg/kg, iv by LC-MS/MS analysis; format: ADME, organism-based; settings: in vivo
[16] = Clearance in male CD-1 mouse at 4 mg/kg, iv by LC-MS/MS analysis; format: ADME, organism-based; settings: in vivo
[17] = Volume of distribution at steady state in male CD-1 mouse at 4 mg/kg, iv by LC-MS/MS analysis; format: ADME, organism-based; settings: in vivo, read-out: Vdss

Chain of Ubiquitin carboxyl-terminal hydrolase 14 (Homo sapiens) (P54578 whole entry): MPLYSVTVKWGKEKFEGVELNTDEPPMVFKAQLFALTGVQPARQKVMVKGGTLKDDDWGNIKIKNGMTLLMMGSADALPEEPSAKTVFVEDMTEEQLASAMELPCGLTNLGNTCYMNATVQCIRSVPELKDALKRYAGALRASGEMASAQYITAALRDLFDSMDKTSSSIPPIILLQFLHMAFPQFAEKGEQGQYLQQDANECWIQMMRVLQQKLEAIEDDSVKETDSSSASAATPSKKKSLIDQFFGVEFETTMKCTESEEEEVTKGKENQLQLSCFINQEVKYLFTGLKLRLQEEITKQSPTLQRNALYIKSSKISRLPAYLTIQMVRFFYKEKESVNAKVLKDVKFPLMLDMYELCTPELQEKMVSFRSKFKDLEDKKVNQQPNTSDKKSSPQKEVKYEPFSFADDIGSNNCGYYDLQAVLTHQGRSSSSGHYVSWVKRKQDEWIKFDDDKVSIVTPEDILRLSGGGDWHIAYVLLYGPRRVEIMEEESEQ

## CC(C)C[C@H](NC(=O)OCc1ccccc1)C(=O)N[C@@H](CC1CCNC1=O)C(O)S(=O)(=O)O (stereo not given in full)
[1]
  EC50: 4500 nM

## CC(C)(C)[C@H](NC(=O)C(F)(F)F)C(=O)N1C[C@H]2[C@@H]([C@H]1C(=O)N[C@H](C#N)C[C@@H]1CCNC1=O)C2(C)C
[1]
  EC50: 32.6 nM

## CC(C)C[C@@H]1NC(=O)[C@H](CC(N)=O)NC(=O)[C@H](Cc2ccc(O)cc2)NC(=O)CSC[C@@H](C(=O)NCC(N)=O)NC(=O)[C@H](Cc2ccc(O)cc2)NC(=O)[C@H](CCC(N)=O)NC(=O)[C@H]([C@@H](C)O)NC(=O)[C@H]([C@@H](C)O)NC(=O)[C@H](Cc2c[nH]c3ccccc23)NC(=O)[C@H](CC(=O)O)NC(=O)[C@H]([C@@H](C)O)NC(=O)[C@H](CCCNC(=N)N)NC(=O)[C@H](CCC(N)=O)NC(=O)[C@H](Cc2ccccc2)NC1=O ({CH2CO}-YNLFQRTDWTTQYCG-NH2; thioether N-14)
[2]
  IC50: 500 nM
[3]
  Kd: 1120 nM
[4]
  EC50: 4890 nM
  Activity: inactive
[5]
  CC50 at 48 h: > 100000 nM
[6]
  half-life: 1.6 h

## CC(C)C[C@@H]1NC(=O)[C@H](CC(N)=O)NC(=O)[C@H](Cc2ccc(O)cc2)NC(=O)CSC[C@@H](C(=O)NCC(N)=O)NC(=O)[C@H](Cc2ccccc2)NC(=O)[C@H](CCCNC(=N)N)NC(=O)[C@H](CCC(N)=O)NC(=O)[C@H](CC(N)=O)NC(=O)[C@H](Cc2c[nH]c3ccccc23)NC(=O)[C@H](CC(=O)O)NC(=O)[C@H]([C@@H](C)O)NC(=O)[C@H](CCCNC(=N)N)NC(=O)[C@H](CCC(N)=O)NC(=O)[C@H](Cc2ccccc2)NC1=O ({CH2CO}-YNLFQRTDWNQRFCG-NH2; thioether N-14)
[2]
  IC50: 250 nM
[3]
  Kd: 2540 nM
[4]
  Activity: inactive

## CC(C)C[C@@H]1NC(=O)[C@H](CC(N)=O)NC(=O)[C@H](Cc2ccc(O)cc2)NC(=O)CSC[C@@H](C(=O)NCC(N)=O)NC(=O)[C@H](Cc2ccccc2)NC(=O)[C@H](CO)NC(=O)[C@H](CO)NC(=O)[C@H](CO)NC(=O)[C@H](Cc2c[nH]c3ccccc23)NC(=O)[C@H](CC(=O)O)NC(=O)[C@H](C)NC(=O)[C@H](CCCNC(=N)N)NC(=O)[C@H](CCC(N)=O)NC(=O)[C@H](Cc2ccccc2)NC1=O ({CH2CO}-YNLFQRADWSSSFCG-NH2; thioether N-14)
[2]
  IC50: 300 nM
[3]
  Kd: 6730 nM
[4]
  Activity: inactive

## CC[C@H](C)[C@@H]1NC(=O)[C@H](Cc2ccc(O)cc2)NC(=O)[C@H](CO)NC(=O)[C@H](CC(C)C)NC(=O)CNC(=O)[C@H](Cc2ccc(O)cc2)NC(=O)[C@H](CO)NC(=O)[C@H](CCC(N)=O)NC(=O)[C@H](Cc2ccccc2)NC(=O)[C@@H](Cc2ccc(O)cc2)NC(=O)CSC[C@@H](C(=O)NCC(N)=O)NC(=O)CNC(=O)[C@@H]2CCCN2C1=O
[2]
  IC50: 460 nM
[3]
  Kd: 2780 nM
[4]
  Activity: inactive

## Cn1cnc(Cn2c(=O)[nH]/c(=N\c3cc4cn(C)nc4cc3Cl)n(Cc3cc(F)c(F)cc3F)c2=O)n1
[7]
  EC50: 220 nM

## Cc1cccc(C)c1OCC(=O)N[C@@H](Cc1ccccc1)[C@@H](O)C[C@H](Cc1ccccc1)NC(=O)[C@H](C(C)C)N1CCCNC1=O [LOPINAVIR]
[8]
  Activity: Toxic
[1]
  EC50: 8750 nM

## CC(C)C[C@@H]1NC(=O)[C@H](Cc2ccccc2)NC(=O)[C@@H]2CCCN2C(=O)[C@H]([C@@H](C)O)NC(=O)[C@H]([C@@H](C)O)NC(=O)[C@H]([C@@H](C)O)NC(=O)[C@H](Cc2c[nH]cn2)NC(=O)[C@H](Cc2ccccc2)NC(=O)[C@H]([C@@H](C)O)NC(=O)[C@H](C(C)C)NC(=O)[C@@H](Cc2ccc(O)cc2)NC(=O)CSC[C@@H](C(=O)NCC(N)=O)NC(=O)[C@@H]2CCCN2C(=O)[C@@H]2CCCN2C1=O
[2]
  IC50: 300 nM
[3]
  Kd: 2750 nM
[4]
  EC50: 10800 nM
  Activity: inactive
[5]
  CC50 at 48 h: > 100000 nM
[6]
  half-life: 5.4 h
[9]
  inhibition: Active
[10]
  inhibition: Active

## CC[C@H](C)[C@@H]1NC(=O)[C@@H](Cc2ccc(O)cc2)NC(=O)CSC[C@@H](C(=O)NCC(N)=O)NC(=O)[C@@H]2CCCN2C(=O)[C@H](CC(C)C)NC(=O)[C@H](CC(C)C)NC(=O)[C@H]([C@@H](C)O)NC(=O)[C@H](CC(N)=O)NC(=O)CNC(=O)[C@H](CO)NC(=O)[C@H](C)NC(=O)[C@H](Cc2ccccc2)NC(=O)[C@H](CCCNC(=N)N)NC1=O
[2]
  IC50: 250 nM
[3]
  Kd: 4800 nM
[4]
  Activity: inactive

## CC(C)C[C@@H]1NC(=O)[C@H](Cc2ccc(F)c(F)c2)NC(=O)[C@@H]2CCCN2C(=O)[C@H]([C@@H](C)O)NC(=O)[C@H]([C@@H](C)O)NC(=O)[C@H]([C@@H](C)O)NC(=O)[C@H](Cc2c[nH]cn2)NC(=O)[C@H](Cc2cccc(F)c2)NC(=O)[C@H]([C@@H](C)O)NC(=O)[C@H](C(C)C)NC(=O)[C@@H](Cc2ccc(O)cc2)NC(=O)CSC[C@@H](C(=O)NCC(N)=O)NC(=O)[C@@H]2CCCN2C(=O)[C@@H]2CCCN2C1=O
[2]
  IC50: 320 nM
[4]
  EC50: > 100000 nM
[9]
  inhibition: Active
[10]
  inhibition: Active

## CC(C)C[C@@H]1NC(=O)[C@H](Cc2ccccc2)NC(=O)[C@@H](Cc2ccc(O)cc2)NC(=O)CSC[C@@H](C(=O)NCC(N)=O)NC(=O)CNC(=O)[C@H](Cc2ccccc2)NC(=O)[C@H]([C@@H](C)O)NC(=O)[C@H](Cc2ccc(O)cc2)NC(=O)[C@H](CCCNC(=N)N)NC(=O)[C@H](Cc2ccc(O)cc2)NC(=O)[C@@H]2CCCN2C(=O)[C@@H]2CCCN2C1=O
[2]
  IC50: 1450 nM
[3]
  Kd: 4000 nM
[4]
  Activity: inactive

## CC(C)[C@@H]1NC(=O)[C@@H](Cc2ccc(O)cc2)NC(=O)CC[C@@H](C(N)=O)NC(=O)[C@@H]2CCCN2C(=O)[C@@H]2CCCN2C(=O)C2CSc3c(F)c(F)c(c(F)c3F)-c3c(F)c(F)c(c(F)c3F)SC[C@H](NC1=O)C(=O)N[C@@H](Cc1ccccc1)C(=O)N[C@@H](Cc1c[nH]cn1)C(=O)N[C@@H]([C@@H](C)O)C(=O)N[C@@H]([C@@H](C)O)C(=O)N[C@@H]([C@@H](C)O)C(=O)N1CCC[C@H]1C(=O)N[C@@H](Cc1ccccc1)C(=O)N2
[2]
  IC50: 4510 nM
[4]
  EC50: 8620 nM
[8]
  Activity: Non-toxic
[6]
  half-life: 8 h
[11]
  Drug uptake: Active
[12]
  Drug uptake: Active
[13]
  half-life: 0.499 h
[14]
  C0: 12100 ng/mL
[15]
  AUC(0-inf): 2530 ng·h/mL
[16]
  clearance: 26.5 mL/min/kg
[17]
  Vd: 0.511 L/kg

## CC(C)c1nc(CN(C)C(=O)N[C@H](C(=O)N[C@@H](Cc2ccccc2)C[C@H](O)[C@H](Cc2ccccc2)NC(=O)OCc2cncs2)C(C)C)cs1 [RITONAVIR]
[1]
  EC50: 7540 nM

— ChEMBL document CHEMBL6083280, “De Novo Discovery of a Noncovalent Cell-Penetrating Bicyclic Peptide Inhibitor Targeting SARS-CoV-2 Main Protease” (J Med Chem, 2024)
